Article PMC5398914 (Nature, 2017)

Molecular target: T1, OxsB + OxsA (OxsA/OxsB) (Priestia megaterium, UniProt O24770)
T1 sequence (O24770 1-744): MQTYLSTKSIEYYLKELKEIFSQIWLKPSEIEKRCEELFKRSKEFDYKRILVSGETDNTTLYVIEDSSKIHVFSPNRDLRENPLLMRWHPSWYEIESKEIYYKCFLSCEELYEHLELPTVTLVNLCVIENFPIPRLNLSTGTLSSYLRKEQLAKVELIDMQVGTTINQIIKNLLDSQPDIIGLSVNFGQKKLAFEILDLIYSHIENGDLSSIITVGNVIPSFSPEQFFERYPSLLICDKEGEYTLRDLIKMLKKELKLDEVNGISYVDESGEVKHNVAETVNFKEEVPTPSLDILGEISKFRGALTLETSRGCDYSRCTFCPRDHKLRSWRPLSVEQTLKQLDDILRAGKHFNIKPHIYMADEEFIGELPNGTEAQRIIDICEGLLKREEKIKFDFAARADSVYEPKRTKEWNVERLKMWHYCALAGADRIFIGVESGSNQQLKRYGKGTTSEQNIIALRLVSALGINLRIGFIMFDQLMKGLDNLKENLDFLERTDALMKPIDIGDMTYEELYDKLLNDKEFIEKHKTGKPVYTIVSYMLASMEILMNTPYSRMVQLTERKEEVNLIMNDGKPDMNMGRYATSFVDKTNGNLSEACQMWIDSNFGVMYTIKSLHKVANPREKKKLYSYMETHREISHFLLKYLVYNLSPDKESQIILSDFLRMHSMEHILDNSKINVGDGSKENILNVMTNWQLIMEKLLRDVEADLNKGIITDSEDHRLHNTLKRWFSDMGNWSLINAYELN
Test: HPLC product detection, MS and NMR
Format: biochemical
Conditions: AdoMet, HO-Cbl, MgCl2, DTT, NADPH / methyl viologen

`Nc1ncnc2c1ncn2[C@H]1C[C@H](O)[C@@H](COP(=O)(O)O)O1` [dAMP] was tested, and the “HPLC product detection, MS and NMR” value was “identify dAMP, dADP and dATP as OXT-A precursors”.
